# Test results taken from patent US20080213250A1, “Use of Eph Receptor Inhibitors for the Treatment of Neurodegenerative Diseases” (priority 2004, published 2008).
# Experiments:
# Experiment in all cases: Chemical proteomics pull-down with immobilized compound, LC-MS/MS identification
# Settings in all cases: maximum in any chemical proteomics experiment
# EphB3 = molecular target: T1, EphB3 (Mus musculus, UniProt P54754)
# T1 sequence (P54754 30-993): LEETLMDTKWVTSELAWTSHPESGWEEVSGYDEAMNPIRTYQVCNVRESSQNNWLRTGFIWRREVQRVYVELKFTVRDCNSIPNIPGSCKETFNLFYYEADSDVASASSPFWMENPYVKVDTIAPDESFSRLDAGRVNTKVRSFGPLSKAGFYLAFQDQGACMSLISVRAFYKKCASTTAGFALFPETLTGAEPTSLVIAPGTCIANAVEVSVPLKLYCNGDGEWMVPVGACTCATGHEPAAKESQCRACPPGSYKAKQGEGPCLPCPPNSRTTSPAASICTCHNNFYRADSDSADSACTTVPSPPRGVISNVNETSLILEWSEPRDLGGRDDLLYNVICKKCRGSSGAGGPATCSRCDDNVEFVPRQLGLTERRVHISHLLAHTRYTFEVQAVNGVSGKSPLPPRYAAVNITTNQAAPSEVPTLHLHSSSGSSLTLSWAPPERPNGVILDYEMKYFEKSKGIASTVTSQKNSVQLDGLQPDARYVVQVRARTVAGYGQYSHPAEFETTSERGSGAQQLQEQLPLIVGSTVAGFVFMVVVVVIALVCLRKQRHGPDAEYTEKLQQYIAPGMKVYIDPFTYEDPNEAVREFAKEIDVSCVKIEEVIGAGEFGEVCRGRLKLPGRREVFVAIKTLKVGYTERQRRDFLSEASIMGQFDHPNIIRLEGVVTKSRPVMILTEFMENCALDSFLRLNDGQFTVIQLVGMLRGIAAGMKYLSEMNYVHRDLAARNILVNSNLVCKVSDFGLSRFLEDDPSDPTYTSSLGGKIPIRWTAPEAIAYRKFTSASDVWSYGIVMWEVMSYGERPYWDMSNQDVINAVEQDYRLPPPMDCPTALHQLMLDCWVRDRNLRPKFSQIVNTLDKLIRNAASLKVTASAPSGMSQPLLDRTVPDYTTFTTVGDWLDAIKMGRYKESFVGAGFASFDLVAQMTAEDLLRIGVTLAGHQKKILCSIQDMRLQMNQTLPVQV
# EphA7 = EphA7 (Mus musculus, UniProt Q61772)
# EphA4 = EphA4 (Mus musculus, UniProt Q03137)
# EphB4 = molecular target: T2, EphB4 (Mus musculus, UniProt P54761)
# T2 sequence (P54761 16-987): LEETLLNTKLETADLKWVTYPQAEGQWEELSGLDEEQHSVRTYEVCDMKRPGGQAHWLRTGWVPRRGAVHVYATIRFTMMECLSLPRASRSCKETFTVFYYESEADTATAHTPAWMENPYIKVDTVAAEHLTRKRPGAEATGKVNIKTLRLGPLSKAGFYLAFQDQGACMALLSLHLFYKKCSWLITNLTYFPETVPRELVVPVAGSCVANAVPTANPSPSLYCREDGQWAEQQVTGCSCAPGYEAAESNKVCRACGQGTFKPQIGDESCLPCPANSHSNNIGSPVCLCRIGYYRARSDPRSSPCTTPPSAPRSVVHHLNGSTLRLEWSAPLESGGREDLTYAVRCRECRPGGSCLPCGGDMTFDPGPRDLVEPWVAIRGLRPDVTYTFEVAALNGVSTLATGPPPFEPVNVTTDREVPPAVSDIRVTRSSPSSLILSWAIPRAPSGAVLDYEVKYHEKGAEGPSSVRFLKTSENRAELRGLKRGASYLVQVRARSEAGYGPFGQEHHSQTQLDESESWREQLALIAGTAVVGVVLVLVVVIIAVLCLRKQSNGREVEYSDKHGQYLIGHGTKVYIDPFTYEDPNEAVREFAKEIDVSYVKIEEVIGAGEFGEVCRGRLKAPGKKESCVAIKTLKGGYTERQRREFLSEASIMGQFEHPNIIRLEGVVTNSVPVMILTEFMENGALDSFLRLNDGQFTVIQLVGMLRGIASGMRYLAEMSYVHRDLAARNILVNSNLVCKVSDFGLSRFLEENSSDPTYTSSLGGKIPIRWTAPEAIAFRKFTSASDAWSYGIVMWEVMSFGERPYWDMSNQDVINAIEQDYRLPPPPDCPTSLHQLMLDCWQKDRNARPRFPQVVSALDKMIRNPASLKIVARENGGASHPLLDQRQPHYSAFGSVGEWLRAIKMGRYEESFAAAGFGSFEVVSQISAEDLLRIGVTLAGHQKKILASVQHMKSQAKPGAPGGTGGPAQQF
# Sequence of EphA4 (Q03137 20-986): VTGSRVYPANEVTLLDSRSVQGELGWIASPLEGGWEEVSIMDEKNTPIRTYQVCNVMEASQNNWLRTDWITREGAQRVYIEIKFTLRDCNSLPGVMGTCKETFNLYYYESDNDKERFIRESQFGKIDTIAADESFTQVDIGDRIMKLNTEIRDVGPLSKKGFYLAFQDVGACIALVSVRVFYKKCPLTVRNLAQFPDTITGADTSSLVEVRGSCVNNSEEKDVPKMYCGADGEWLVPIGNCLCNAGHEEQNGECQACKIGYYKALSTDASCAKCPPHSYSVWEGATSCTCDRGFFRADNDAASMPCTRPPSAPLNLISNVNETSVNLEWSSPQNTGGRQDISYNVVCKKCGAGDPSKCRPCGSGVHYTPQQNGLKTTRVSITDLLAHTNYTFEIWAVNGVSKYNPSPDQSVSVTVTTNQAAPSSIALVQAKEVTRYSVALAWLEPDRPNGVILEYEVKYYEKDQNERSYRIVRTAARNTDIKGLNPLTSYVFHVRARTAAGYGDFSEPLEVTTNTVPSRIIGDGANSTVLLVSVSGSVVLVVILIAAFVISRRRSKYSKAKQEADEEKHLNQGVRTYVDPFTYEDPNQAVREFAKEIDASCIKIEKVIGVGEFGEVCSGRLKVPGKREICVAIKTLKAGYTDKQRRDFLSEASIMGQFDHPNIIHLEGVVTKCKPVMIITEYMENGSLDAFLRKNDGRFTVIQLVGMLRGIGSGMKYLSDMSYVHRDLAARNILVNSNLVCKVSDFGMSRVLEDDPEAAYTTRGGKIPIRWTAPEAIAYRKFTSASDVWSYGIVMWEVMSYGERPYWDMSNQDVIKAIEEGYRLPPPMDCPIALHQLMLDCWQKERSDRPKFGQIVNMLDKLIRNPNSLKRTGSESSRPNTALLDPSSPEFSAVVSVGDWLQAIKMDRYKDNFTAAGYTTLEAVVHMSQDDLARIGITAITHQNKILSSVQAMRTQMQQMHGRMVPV
# Sequence of EphA7 (Q61772 28-998): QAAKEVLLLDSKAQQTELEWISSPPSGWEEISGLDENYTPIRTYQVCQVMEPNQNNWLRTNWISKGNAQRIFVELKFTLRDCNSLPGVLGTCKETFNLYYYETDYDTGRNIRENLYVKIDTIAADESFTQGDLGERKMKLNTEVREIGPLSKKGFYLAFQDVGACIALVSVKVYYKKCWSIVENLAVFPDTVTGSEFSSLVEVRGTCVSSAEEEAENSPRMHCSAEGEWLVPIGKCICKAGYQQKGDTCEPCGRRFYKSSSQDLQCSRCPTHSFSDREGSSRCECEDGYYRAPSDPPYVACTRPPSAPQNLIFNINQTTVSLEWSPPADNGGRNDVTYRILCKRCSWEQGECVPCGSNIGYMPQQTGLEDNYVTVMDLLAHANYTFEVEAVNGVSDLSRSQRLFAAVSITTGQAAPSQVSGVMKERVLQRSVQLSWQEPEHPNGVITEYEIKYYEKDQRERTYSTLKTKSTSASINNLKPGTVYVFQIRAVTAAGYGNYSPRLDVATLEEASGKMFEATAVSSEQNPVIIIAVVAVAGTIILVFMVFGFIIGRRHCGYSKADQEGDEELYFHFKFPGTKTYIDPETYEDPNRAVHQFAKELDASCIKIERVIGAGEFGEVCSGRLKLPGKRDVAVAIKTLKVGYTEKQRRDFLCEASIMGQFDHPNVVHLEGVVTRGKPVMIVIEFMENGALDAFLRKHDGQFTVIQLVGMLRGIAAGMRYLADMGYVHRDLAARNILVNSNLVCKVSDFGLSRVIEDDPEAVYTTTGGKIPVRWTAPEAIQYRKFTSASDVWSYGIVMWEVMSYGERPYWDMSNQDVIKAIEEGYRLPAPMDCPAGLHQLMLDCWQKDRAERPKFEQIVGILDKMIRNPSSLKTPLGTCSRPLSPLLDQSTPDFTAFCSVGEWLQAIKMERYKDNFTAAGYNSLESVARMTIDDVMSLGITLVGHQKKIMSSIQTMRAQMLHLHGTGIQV
SMILES,"maximal number of non-redundant peptides identified, EphB3 (EphB3)","maximal number of non-redundant peptides identified, EphA7 (EphA7)","maximal number of non-redundant peptides identified, EphA4 (EphA4)","maximal number of non-redundant peptides identified, EphB4 (EphB4)"
CC(C)[C@H](CO)Nc1nc(Nc2ccc(C(=O)O)c(Cl)c2)c2ncn(C(C)C)c2n1 [Purvalanol B],4,4,14,46
CSc1cccc(Nc2ncc3cc(-c4c(Cl)cccc4Cl)c(=O)n(C)c3n2)c1 [PD173955],17,7,47,17
